Reference: patent EP0127076A2, “Histargin, a microbiological process for its preparation, its use as a medicament, and the strain Streptomyces roseoviridis having the ability to produce histargin” (MICROBIAL CHEMISTRY RESEARCH FOUNDATION, priority 1983, dated 1984)

Columns and labels:
[1] = system: Wistar rats; experiment: potentiation of morphine-induced analgesia, tail-flick technique in morphine-unresponsive rats; format: in vivo
[2] = system: Slc-CDF1 mice; experiment: cell-mediated immunity: delayed-type hypersensitivity (D.T.H.) to sheep red blood cell, footpad swelling; format: in vivo; details: normal mice, 5, 0.5, 0,05 and 0.005 mg/kg once intraperitoneally; statement on Table 1 (image)
Procedure: This effect was investigated using as its index the degree of delayed- type hypersensitivity (D.T.H.) to sheep red blood cell (SRBC) injectd intravenously as an antigen (see J. Exp. Med. 139, 1529-1539, 1974).
A suspension of 10^5 SRBCs in 0.05 ml of physiological saline solution was injected intravenously into Slc-CDF1 mice (female, 9 weeks old). Simultaneously, histargin monohydrate in doses of 5, 0.5, 0,05 and 0.005 mg/kg was administerd once intraperitoneally as a solution dissolved in physiological saline solution.
Four days after admnistration, a suspension of 10^8 SRBCs in 0.05 ml of physiological saline solution was injected subcutaneously to the footpads to induce D.T.H. Twenty-four hours after the subcutaneous injection, footpad swellings (increases in the foot thicknesses) were measured with a caliper. The mean footpad swelling in control animals receiving SRBCs and physiological saline solution but without the test compound was designated as C, which was set at 100 %• The mean footpad swelling in animals treated with SRBCs, physiological saline solution, and the test compound was designated as T. The ratio of T to C was calculated to evaluate the effect of the test compound to potentiate cell-mediated immunity.

[3] = system: enkephalinase B; experiment: enkephalinase B inhibition (tritiated methionine enkephalin hydrolysis); format: biochemical, crab-eating monkeys; details: concentration of 100 µg/ml, pH 7.0
Procedure: Enkephalinase B was obtained by homogenizing the brains of crab-eating monkeys, fractionating the homogenate, and purifying soluble fractions in accordance with the method of Hazato et al. (Biochemical and Biophysical Research Communications, Vol. 105, No. 2, pp. 470-475, 1982). The inhibitory activity of histargin against enkephalinase B was measured by the method of Hasato et al. described in the same reference.
Ten µmol of methionine enkephalin (Tyr-Gly-Gly-Phe-Met) having the terminal tyrosine partially tritiated was used as a substrate. This substrate was hydrolyzed with enkephalinase B in 100 µl of […] Tris-hydrochloric acid buffer solution (pH 7.0). The segment, Tyr-Gly, resulting from hydrolysis was separated using a column of Porapak Q (a product of Whatman), and determined quantitatively based on its radioactivity. The results obtained when the above reaction was carried out in the presence of histargin were compared with those obtained when the reaction was performed in the absence of histargin. Based on the comparison, the enkephalinase B-inhibiting activity of histragin was evaluated.

[4] = target: T1, carboxypeptidase B (Sus scrofa, UniProt P09955); experiment: anti-carboxypeptidase B activity (hippuryl-L-lysine substrate, cyanuric chloride colour reaction); format: biochemical; details: purified carboxypeptidase B from the pancreas of pigs, 37°C, pH 8.0; read-out: 50 % inhibition (IC50) against carboxypeptidase B (converted)
T1 construct: purified carboxypeptidase B (a product of Boehringer-Mannheim obtained from the pancreas of pigs); purchased Boehringer-Mannheim; host or cells: pig pancreas
T1 sequence (P09955 111-416): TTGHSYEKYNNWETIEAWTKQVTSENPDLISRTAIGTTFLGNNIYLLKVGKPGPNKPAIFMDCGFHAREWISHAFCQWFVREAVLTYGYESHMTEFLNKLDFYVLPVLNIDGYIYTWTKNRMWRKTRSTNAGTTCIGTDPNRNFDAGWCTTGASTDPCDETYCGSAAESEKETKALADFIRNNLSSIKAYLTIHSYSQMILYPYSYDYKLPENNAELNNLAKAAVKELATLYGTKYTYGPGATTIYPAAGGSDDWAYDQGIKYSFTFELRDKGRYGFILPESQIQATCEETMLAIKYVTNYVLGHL
Procedure: Histargin in the cultivation and purification steps was traced by measuring anti-carboxypeptidase B activity. Anti-carboxypeptidase B activity was measured in the following way according to an improved method based on the angiotensin I transferase activity determination method described in M.Hayakari et al., "Analytical Biochemistry," 84, 361-369, 1978.
A mixed solution was prepared by adding 0.25 ml of 0.05M Tris-hydrochloric acid buffer solution (pH 8.0) and 0.15 ml of a solution containing a histargin sample to 0.05 ml of 0.05M hippuryl-L-lysine (a product of Peptide Institute). The mixed solution was heated for 3 minutes at 37°C, and 0.05 ml of an aqueous solution of 1 µg/ml of purified carboxypeptidase B (a product of Boehringer-Mannheim obtained from the pancreas of pigs) was added to the mixed solution. To the resulting mixture was added 0.03 ml of 1N sodium hydroxide to terminate the reaction. Fifteen minutes later, 2 ml of a 1 % methyl cellosolve solution of cyanuric chloride was added for a color reaction. After the mixture was allowed to stand for 15 minutes at room temperature, the absorbance (a) at 382 nm was measured. Separately, there was measured the blank absorbance (b) of the same reaction mixture except that the histargin sample was not contained. The percent inhibition against carboxypeptidase B was calculated from the equation [(b - a)/b] x 100.

CC(C)C[C@H](NC(=O)[C@@H](O)[C@H](N)Cc1ccccc1)C(=O)O [Bestatin]
Potentiation of morphine-induced analgesia (%) ([1]; 250 mg/kg, for comparison, Wistar rats): 19.9%

CN1CC[C@]23c4c5ccc(O)c4O[C@H]2[C@@H](O)C=C[C@H]3[C@H]1C5 [Morphine]
Potentiation of morphine-induced analgesia (%) ([1]; morphine only 0.5 mg/kg (control group)): 0% | Potentiation of morphine-induced analgesia (%) ([1]; morphine only 2 mg/kg): 28.4% | Potentiation of morphine-induced analgesia (%) ([1]; morphine only 3 mg/kg): 35.1%

N=C(N)NCCCC(NCCNC(Cc1cnc[nH]1)C(=O)O)C(=O)O (centres unmarked) [histargin monohydrate, histargin]
effect on cell-mediated immunity (D.T.H. footpad swelling, T/C) [2]: potentiates cell-mediated immunity | Potentiation of morphine-induced analgesia (%) ([1]; 100 mg/kg intraperitoneally + 0.5 mg/kg morphine, morphine-unresponsive Wistar rats): 33.8% | inhibition against enkephalinase B [3]: 92% | IC50 [4]: 33.8 µM
